From paper PMC6272861, “In Vitro Inhibition of Human UDP-Glucuronosyl-Transferase (UGT) Isoforms by Astaxanthin, β-Cryptoxanthin, Canthaxanthin, Lutein, and Zeaxanthin: Prediction of in Vivo Dietary Supplement-Drug Interactions” (Molecules, 2016)

Target: T1, UGT1A1 (Homo sapiens, UniProt P22309)
T1 sequence (P22309 26-533): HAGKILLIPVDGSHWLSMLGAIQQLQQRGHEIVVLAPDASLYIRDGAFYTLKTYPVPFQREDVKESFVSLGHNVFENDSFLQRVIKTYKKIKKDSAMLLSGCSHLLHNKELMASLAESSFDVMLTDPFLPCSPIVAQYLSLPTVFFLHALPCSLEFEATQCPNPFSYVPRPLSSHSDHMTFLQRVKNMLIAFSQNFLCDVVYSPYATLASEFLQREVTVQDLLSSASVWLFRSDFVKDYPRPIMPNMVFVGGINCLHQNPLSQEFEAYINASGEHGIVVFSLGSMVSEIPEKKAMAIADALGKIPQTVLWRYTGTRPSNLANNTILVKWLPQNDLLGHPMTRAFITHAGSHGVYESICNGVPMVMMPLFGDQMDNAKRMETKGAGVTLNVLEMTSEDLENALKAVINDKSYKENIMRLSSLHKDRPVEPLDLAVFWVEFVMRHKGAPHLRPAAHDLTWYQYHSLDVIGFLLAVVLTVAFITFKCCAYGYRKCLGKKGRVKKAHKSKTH
Assay: Prediction of in vivo drug interaction via UGT1A1 inhibition (AUCi/AUC = 1 + [I]in vivo/Ki)
Parameters: pooled human liver microsomes (final concentration 0.25 mg/mL); tissue Corning Life Sciences; host or cells: pooled human liver microsomes, 150 donors
Text: As far as we know, for reversible inhibitors, the magnitude of the drug-drug interaction is affected by both the in vitro inhibition constant (Ki) and the in vivo inhibitor concentration. […] In this study, the maximum plasma concentration (Cmax) of βC was used as the [I]in vivo value, and the fraction metabolized by the UGT1A1 of the co-administrated drug was supposed to be 1.

Which results are given for CC1=C(/C=C/C(C)=C/C=C/C(C)=C/C=C/C=C(C)/C=C/C=C(C)/C=C/C2=C(C)C[C@@H](O)CC2(C)C)C(C)(C)CCC1 [βC, β-cryptoxanthin]?
AUCi/AUC ratio for UGT1A1 (calculated from Cmax 0.15 μM and Ki, fraction metabolized by UGT1A1 supposed to be 1): 1.012; Predicted increase of AUC of co-administered drug (drugs that undergo 100% UGT1A1-mediated elimination): 1.2%
